In US20030104487A1, “Neuropeptide receptor and uses thereof” (priority 2001, published 2003):

How the values were obtained:
[1] = target: T1, EBI2 (Homo sapiens, UniProt P32249); test: Response of EBI2 to CRF-family neuropeptides (test not specified); conditions: general statement, no test named
[2] = target: T1, EBI2; test: β-Arrestin assay (GFP-β-arrestin clustering/internalisation); format: cell-based; parameters: expressed in transfected cells; host or cells: HEK 293; conditions: HEK 293 cells transiently expressing EBI2 and GFP-β-arrestin; ligand ~500 nM, 30 minutes; confocal microscopy, FIG. 2
From the text: General principle of the assay: Agonist binding to the GPCR activates G-proteins and ultimately results in second messenger cascades to elicit a physiological response. In most cases receptors occupied by agonists undergo rapid phosphorylation by GPCR Kinases (GRKs). This in turn allows β-arrestin to bind to the GPCR preventing any further interaction between the GPCR and G-protein. Internalisation of the GPCR via clathrin coated pits follows as a result of arrestin-clathrin interactions (Krupnick, J. G. and Benovic, J. L. (1998) Annual Review of Pharmacological Toxicology, 38, 289-319). By employing fusion constructs of green fluorescent protein (GFP)-β arrestin, this receptor desensitisation can be visualised using confocal microscopy. In the absence of receptor activation in a transfected cell line, fluorescence associated with the β-arrestin-GFP is evenly distributed throughout the cytoplasm. Upon receptor activation by an agonist, cytosolic β-arrestin-GFP translocates to the cell surface reflecting the interaction with the activated receptor (Evans et al. 2001). […]
The receptor EBI2 and GFP-β-arrestin mammalian expression constructs were transiently transfected in to HEK 293 cells. […] The cells were then analysed using both confocal microscopy and the Cellomics ArrayScanII methodologies in order to identify internalisation of the ligand receptor GFP-β-arrestin complex. […]

[3] = target: T1, EBI2; test: Functional assay measuring intracellular calcium mobilisation (FLIPR); format: cell-based; conditions: EBI2-expressing cells compared to mock-transfected cells; FIG. 1
Method: 5×10^6 cells of a suitable host cell line, chosen to express a low number of endogenous receptors (e.g. HEK293 or CHO-K1) and engineered to stably express certain Gα proteins (e.g. mouse Gα15 (Wilkie, T. M. et al (1991) Proc. Natl. Acad. Sci. 88, 10049-10053), a chimeric Gqi5/Gqo5 α-subunit, or human Gα16 (Amatruda, TT 3rd et al (1991) Proc. Natl. Acad. Sci. 88, 5587-5591)), were transiently transfected with 7.5 μg of cDNA encoding EBI2 in a suitable mammalian cell expression vector, or vector alone, using Lipofectamine Plus® reagent (Gibco BRL) as per the manufacturer's protocol. […]
Fluorescence Imaging Plate Reader (FLIPR®) technology was employed as a means to detect activation of EBI2 by various potential GPCR agonists.
Cells were transfected as described in Example 3. […] The FLIPR® processing involved reading the fluorescence for all samples for 2 minutes; during this time the fluorescence baseline was determined […]. The desired amount of compounds (i.e. potential GPCR agonists) was then automatically transferred to the wells and the fluorescence was continuously monitored for the remainder of the time. […]
Compounds capable of acting as agonists for the receptor were identified by them causing a transient rise in fluorescence, and therefore in intracellular calcium, in the cells.

T1 sequence (P32249 whole entry): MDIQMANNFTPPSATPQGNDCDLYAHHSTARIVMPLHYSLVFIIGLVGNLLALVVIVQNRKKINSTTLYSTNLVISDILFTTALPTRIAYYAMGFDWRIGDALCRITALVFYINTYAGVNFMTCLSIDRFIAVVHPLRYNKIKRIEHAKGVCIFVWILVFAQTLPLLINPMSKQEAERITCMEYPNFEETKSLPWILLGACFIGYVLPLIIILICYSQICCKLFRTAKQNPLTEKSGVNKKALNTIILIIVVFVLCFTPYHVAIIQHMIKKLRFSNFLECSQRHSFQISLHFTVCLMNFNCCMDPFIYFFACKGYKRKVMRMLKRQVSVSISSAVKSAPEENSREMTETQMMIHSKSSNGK

Q: For `CC[C@H](C)[C@H](NC(=O)[C@@H](NC(=O)[C@H](CC(=O)O)NC(=O)[C@H](CC(C)C)NC(=O)[C@H](CC(C)C)NC(=O)[C@H](CC(C)C)NC(=O)[C@H](CCCNC(=N)N)NC(=O)[C@H](CC(N)=O)NC(=O)[C@H](CC(N)=O)NC(=O)[C@H](C)NC(=O)[C@H](C)NC(=O)[C@H](CCC(N)=O)NC(=O)[C@H](CCC(N)=O)NC(=O)[C@H](CCCCN)NC(=O)[C@H](CCC(=O)O)NC(=O)[C@H](CCCCN)NC(=O)[C@H](CCC(=O)O)NC(=O)[C@H](CCC(N)=O)NC(=O)[C@H](CCCCN)NC(=O)[C@H](CCC(=O)O)NC(=O)[C@@H](NC(=O)[C@H](CCC(=O)O)NC(=O)[C@@H](NC(=O)[C@H](CCSC)NC(=O)[C@H](CCCCN)NC(=O)[C@H](CCCNC(=N)N)NC(=O)[C@H](CC(C)C)NC(=O)[C@H](CC(C)C)NC(=O)[C@H](CCC(=O)O)NC(=O)[C@H](CC(C)C)NC(=O)[C@H](CO)NC(=O)[C@H](CC(C)C)NC(=O)[C@H](CC(=O)O)NC(=O)[C@@H](NC(=O)[C@H](CO)NC(=O)[C@@H](NC(=O)[C@@H]1CCCN1C(=O)[C@@H]1CCCN1C(=O)CNC(=O)[C@@H]1CCC(=O)N1)[C@@H](C)CC)[C@@H](C)CC)[C@@H](C)CC)[C@@H](C)CC)[C@@H](C)O)C(N)=O` [sauvagine], which “receptor responds to the peptide” value [1] is on record?
A: The value was “responds”.

Q: Which “clustering of GFP-β-arrestin complex on the cell surface” value [2] does the source give for urotensin I here?
A: The value was “Clustering of the fluorescent GFP-β-arrestin complex is clearly observed”.

Q: And the “fluorescence change over time (transient rise in intracellular calcium)” value [3]?
A: The value was “response of EBI2-expressing cells to urotensin I”.

Q: And the “receptor responds to the peptide” value [1]?
A: The value was “responds”.
